Reference: PMC6407917, “Identification of GSK3186899/DDD853651 as a Preclinical Development Candidate for the Treatment of Visceral Leishmaniasis” (Journal of Medicinal Chemistry, 2018)

Legend:
Assay in all cases: biochemical
Set-up in all cases: species or system HEK293/K-562/placenta mixed human extract; Kinobeads chemoproteomic competition binding, quantified by TMT LC-MS/MS, dose response up to 20 uM
AURKA = AURKA (Homo sapiens, UniProt O14965)
BRAF = BRAF (Homo sapiens, UniProt P15056)
CAMK4 = CAMK4 (Homo sapiens, UniProt Q16566)
CDC7 = CDC7 (Homo sapiens, UniProt O00311)
CDK5 = CDK5 (Homo sapiens, UniProt Q00535)
DSTYK = DSTYK (Homo sapiens, UniProt Q6XUX3)
EPHA1 = EPHA1 (Homo sapiens, UniProt P21709)
EPHA5 = EPHA5 (Homo sapiens, UniProt P54756)
EPHA7 = EPHA7 (Homo sapiens, UniProt Q15375)
EPHB4 = EPHB4 (Homo sapiens, UniProt P54760)
FYN = FYN (Homo sapiens, UniProt P06241)
MAP2K3 = MAP2K3 (Homo sapiens, UniProt P46734)
MAP2K5 = MAP2K5 (Homo sapiens, UniProt Q13163)
MAP4K3 = MAP4K3 (Homo sapiens, UniProt Q8IVH8)
MARK3 = MARK3 (Homo sapiens, UniProt P27448)
NEK6 = NEK6 (Homo sapiens, UniProt Q9HC98)
NLK = NLK (Homo sapiens, UniProt Q9UBE8)
PIK3C2B = PIK3C2B (Homo sapiens, UniProt O00750)
STK38 = STK38 (Homo sapiens, UniProt Q15208)
TTK = TTK (Homo sapiens, UniProt P33981)
YES1 = YES1 (Homo sapiens, UniProt P07947)

Measured: IC50

Chain of CDK5 (Q00535 whole entry): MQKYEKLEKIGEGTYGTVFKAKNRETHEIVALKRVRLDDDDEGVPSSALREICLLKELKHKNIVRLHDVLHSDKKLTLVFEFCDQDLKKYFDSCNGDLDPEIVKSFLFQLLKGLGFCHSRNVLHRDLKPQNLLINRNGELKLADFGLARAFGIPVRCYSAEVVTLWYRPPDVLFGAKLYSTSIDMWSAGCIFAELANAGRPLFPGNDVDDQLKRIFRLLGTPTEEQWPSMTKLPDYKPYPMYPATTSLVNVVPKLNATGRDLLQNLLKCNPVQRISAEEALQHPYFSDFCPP
Chain of MAP4K3 (Q8IVH8 whole entry): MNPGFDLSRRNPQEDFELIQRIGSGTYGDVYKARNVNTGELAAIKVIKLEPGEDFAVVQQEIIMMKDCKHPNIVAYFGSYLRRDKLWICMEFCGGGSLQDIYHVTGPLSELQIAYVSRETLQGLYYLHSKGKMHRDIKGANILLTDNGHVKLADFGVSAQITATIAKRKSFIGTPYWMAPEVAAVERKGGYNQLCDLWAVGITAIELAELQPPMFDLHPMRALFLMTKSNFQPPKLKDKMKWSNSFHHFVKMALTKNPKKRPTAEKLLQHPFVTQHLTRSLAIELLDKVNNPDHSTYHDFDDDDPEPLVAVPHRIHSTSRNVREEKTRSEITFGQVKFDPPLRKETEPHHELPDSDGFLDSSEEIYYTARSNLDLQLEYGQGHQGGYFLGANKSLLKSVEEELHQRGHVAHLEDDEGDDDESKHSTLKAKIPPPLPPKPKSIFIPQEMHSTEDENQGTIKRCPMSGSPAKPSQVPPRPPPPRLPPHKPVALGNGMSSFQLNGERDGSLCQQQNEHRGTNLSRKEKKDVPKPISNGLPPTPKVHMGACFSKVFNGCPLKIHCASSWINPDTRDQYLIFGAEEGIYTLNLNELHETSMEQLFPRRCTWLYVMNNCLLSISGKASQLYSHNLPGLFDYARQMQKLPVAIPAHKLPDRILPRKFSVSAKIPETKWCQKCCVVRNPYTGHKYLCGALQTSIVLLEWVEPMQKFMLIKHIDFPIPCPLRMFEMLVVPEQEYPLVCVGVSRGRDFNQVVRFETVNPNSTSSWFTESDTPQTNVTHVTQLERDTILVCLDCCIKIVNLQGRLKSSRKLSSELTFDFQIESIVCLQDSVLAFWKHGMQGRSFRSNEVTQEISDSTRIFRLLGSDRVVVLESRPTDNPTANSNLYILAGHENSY
Chain of EPHA7 (Q15375 whole entry): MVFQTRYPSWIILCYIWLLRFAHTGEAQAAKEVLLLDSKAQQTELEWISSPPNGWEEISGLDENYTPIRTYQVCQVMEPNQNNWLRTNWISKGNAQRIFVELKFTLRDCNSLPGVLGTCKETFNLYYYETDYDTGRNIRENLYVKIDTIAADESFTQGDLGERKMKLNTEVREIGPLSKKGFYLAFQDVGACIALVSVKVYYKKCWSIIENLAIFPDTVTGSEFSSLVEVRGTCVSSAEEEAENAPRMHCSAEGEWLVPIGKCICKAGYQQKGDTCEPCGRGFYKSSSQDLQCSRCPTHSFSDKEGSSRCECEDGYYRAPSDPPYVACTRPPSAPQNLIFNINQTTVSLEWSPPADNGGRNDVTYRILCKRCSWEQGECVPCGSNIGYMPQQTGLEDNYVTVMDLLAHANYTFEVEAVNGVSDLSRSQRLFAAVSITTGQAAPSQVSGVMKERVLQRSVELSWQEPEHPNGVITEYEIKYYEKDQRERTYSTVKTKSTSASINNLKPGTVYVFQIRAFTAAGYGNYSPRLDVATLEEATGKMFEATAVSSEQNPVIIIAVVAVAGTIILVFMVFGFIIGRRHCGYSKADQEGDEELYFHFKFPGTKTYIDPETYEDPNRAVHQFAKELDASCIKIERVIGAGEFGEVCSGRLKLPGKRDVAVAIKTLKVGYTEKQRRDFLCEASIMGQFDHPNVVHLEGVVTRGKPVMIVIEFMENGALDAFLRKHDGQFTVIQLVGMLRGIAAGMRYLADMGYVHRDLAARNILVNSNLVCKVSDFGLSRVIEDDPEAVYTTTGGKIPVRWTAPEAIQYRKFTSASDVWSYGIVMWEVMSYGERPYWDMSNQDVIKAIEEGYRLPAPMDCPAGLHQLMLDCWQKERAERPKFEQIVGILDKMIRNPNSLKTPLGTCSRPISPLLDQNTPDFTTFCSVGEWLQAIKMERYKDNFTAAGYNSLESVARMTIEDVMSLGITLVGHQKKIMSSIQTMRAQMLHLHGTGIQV
Chain of MARK3 (P27448 whole entry): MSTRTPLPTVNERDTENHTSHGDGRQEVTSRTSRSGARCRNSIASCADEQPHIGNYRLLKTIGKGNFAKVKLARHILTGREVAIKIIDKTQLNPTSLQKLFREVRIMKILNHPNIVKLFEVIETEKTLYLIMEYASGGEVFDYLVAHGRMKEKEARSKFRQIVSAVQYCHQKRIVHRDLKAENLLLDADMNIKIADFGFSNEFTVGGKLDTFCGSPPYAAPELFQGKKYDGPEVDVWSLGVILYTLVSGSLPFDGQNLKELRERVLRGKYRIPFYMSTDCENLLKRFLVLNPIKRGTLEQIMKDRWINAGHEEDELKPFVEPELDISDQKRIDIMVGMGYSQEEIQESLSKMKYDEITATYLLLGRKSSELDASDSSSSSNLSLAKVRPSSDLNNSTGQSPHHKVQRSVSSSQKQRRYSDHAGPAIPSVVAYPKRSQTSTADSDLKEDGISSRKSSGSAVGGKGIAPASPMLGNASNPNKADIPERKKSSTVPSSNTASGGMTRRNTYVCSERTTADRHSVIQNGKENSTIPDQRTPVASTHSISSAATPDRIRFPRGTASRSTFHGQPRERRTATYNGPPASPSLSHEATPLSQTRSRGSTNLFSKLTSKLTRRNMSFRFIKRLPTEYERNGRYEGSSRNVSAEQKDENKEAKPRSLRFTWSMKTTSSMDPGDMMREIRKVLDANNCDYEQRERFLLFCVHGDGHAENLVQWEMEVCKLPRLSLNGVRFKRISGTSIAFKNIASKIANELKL
Chain of PIK3C2B (O00750 whole entry): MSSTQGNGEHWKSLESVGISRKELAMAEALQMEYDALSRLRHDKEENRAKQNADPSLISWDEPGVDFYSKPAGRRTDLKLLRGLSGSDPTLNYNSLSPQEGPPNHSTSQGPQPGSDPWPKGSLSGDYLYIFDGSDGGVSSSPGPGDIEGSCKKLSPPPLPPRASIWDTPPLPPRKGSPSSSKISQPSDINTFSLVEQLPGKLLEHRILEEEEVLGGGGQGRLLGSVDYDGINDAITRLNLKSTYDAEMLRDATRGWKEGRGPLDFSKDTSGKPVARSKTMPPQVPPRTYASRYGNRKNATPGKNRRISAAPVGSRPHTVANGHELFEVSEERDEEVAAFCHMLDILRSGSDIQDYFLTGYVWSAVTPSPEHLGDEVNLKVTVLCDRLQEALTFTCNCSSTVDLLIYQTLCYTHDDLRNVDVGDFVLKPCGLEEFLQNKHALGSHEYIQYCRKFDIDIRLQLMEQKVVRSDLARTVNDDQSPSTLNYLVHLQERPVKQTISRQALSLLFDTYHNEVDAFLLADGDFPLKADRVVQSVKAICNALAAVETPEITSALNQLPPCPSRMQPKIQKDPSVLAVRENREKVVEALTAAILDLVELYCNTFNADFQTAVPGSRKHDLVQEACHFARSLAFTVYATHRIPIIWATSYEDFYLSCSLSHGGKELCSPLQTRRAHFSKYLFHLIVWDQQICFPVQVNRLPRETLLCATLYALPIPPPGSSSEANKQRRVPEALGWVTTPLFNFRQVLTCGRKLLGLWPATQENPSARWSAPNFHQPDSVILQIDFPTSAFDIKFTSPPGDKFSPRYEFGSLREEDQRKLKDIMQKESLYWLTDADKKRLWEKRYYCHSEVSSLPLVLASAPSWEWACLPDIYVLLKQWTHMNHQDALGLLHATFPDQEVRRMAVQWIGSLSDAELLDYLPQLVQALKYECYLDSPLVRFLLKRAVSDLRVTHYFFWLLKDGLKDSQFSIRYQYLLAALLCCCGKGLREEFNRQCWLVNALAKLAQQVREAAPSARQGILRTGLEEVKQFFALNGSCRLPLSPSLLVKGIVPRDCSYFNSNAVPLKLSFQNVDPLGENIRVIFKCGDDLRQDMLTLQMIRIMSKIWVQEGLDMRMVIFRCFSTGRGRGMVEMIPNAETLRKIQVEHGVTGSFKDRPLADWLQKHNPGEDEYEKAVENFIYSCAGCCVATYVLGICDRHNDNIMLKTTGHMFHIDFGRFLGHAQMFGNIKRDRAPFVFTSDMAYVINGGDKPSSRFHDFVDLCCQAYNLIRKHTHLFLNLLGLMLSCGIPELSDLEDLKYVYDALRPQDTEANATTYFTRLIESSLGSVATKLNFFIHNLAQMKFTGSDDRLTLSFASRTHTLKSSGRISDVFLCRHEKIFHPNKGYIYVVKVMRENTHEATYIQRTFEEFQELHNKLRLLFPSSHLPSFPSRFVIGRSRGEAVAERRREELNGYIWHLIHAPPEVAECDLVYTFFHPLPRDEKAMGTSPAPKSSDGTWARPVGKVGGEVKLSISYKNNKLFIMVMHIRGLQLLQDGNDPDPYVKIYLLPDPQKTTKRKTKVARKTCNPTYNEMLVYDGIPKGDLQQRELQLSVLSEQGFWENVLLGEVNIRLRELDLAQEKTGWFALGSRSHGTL
Chain of MAP2K5 (Q13163 whole entry): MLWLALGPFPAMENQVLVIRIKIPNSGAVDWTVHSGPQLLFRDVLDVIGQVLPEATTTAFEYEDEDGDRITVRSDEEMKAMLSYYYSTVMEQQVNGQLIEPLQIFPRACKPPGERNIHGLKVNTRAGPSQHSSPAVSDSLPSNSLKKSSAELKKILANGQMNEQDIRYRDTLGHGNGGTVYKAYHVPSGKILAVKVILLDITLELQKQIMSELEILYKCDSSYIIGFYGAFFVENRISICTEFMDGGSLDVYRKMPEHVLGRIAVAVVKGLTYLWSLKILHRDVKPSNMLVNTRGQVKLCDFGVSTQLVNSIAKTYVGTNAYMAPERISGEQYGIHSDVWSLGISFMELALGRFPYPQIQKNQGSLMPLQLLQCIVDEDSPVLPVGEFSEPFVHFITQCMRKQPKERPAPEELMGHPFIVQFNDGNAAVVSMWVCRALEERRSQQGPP

COc1ccccc1-c1n[nH]c2nc(N[C@H]3CC[C@H](NS(=O)(=O)CCC(F)(F)F)CC3)nc(OC)c12 [compound 31, 3,3,3-Trifluoro-N-(trans-4-((4-methoxy-3-(2-methoxyphenyl)-1H-pyrazolo[3,4-d]pyrimidin-6-yl)amino)cyclohexyl)propane-1-sulfonamide]
1.2 µM: CDK5
3.4 µM: NLK
≥ 20 µM: all other assays above
